In patent US9630977B2, “Cephalosporin derivatives and pharmaceutical compositions thereof” (Legochem Biosciences, Inc., priority 2011, dated 2017):
Converted amounts (≈) assume the structure as drawn.

system: P. aeruginosa 37; assay: In vitro antibacterial activity test (broth microdilution); type: cell-based; conditions: Pseudomonas aeruginosa, 37, P. aeruginosa 37; read-out: MIC90
Protocol: (§1) To evaluate antibacterial activity of each of the compounds of Examples 1 to 68, in vitro antibacterial activity test was performed.
(§2) The in vitro antibacterial activity was evaluated by measuring MIC90 (ug/mL) of each of the compounds of Examples 1 to 68, which is defined as the lowest concentration of an antibiotic that will inhibit the visible growth of 90% of microorganisms after incubation as compared with a control group to which the antibiotic is not treated. MIC90 values were measured by the broth microdilution method developed by the Clinical and Laboratory Standards Institute (CLSI) (see CLSI M7-A5, Methods for Dilution Antimicrobial Susceptibility Test for Bacteria that Grow Aerobically-Fifth Edition (2000): CLSI, Villanova, Pa.).
(§3) In vitro antibacterial activity was measured with respect to the following 19 clinical isolates: M. catarrhalis; P. aeruginosa (5 strains); K. pneumoniae (6 strains); A. baumannii (3 strains); E. coli (2 strains); A. calcoaceticus; and E. cloacae.
(§4) Test compounds each (the cephalosporin derivative compounds prepared in Examples 1 to 68) were dissolved in DMSO at the concentration of 10,240 ug/mL, were diluted by two fold with DMSO, and then were diluted by twenty fold with sterilized distilled water. The final concentration in the antibacterial activity test was in the range of […] to 128 ug/mL, and the final concentration of DMSO used as an adjuvant was 2.5% (V/V).

| SMILES | MIC90 [µg/mL] |
| --- | --- |
| C[C@H](O/N=C(\C(=O)N[C@@H]1C(=O)N2C(C(=O)[O-])=C(C[n+]3cnc(N)c(NCCNC(=O)c4cc(=O)c(O)cn4O)c3)CSC12)c1csc(N)n1)C(=O)O (stereo partly drawn) [Compound 3] | 1 (≈ 1.32 µM) |

system: M. catarrhalis 2524; assay: as above; type: cell-based; conditions: Moraxella catarrhalis; M. catarrhalis 2524; read-out: MIC90
Protocol: as §1, §2, §3, §4

| SMILES | MIC90 [µg/mL] |
| --- | --- |
| C[C@H](O/N=C(\C(=O)N[C@@H]1C(=O)N2C(C(=O)[O-])=C(C[n+]3cnc(N)c(NCCNC(=O)c4cc(=O)c(O)cn4O)c3)CSC12)c1csc(N)n1)C(=O)O (stereo partly drawn) [Compound 3] | 2 (≈ 2.63 µM) |

system: E. coli β4; assay: as above; type: cell-based; conditions: Escherichia coli, read-out: MIC90
Protocol: as §1, §2, §3, §4

| SMILES | MIC90 [µg/mL] |
| --- | --- |
| C[C@H](O/N=C(\C(=O)N[C@@H]1C(=O)N2C(C(=O)[O-])=C(C[n+]3cnc(N)c(NCCNC(=O)c4cc(=O)c(O)cn4O)c3)CSC12)c1csc(N)n1)C(=O)O (stereo partly drawn) [Compound 3] | 1 (≈ 1.32 µM) |

system: E. coli AG100; assay: as above; type: cell-based; conditions: Escherichia coli, AG100, E. coli AG100; read-out: MIC90
Protocol: as §1, §2, §3, §4

| SMILES | MIC90 [µg/mL] |
| --- | --- |
| C[C@H](O/N=C(\C(=O)N[C@@H]1C(=O)N2C(C(=O)[O-])=C(C[n+]3cnc(N)c(NCCNC(=O)c4cc(=O)c(O)cn4O)c3)CSC12)c1csc(N)n1)C(=O)O (stereo partly drawn) [Compound 3] | < 0.0625 |

system: P. aeruginosa 43; assay: as above; type: cell-based; conditions: Pseudomonas aeruginosa; P. aeruginosa 43; read-out: MIC90
Protocol: as §1, §2, §3, §4

| SMILES | MIC90 [µg/mL] |
| --- | --- |
| C[C@H](O/N=C(\C(=O)N[C@@H]1C(=O)N2C(C(=O)[O-])=C(C[n+]3cnc(N)c(NCCNC(=O)c4cc(=O)c(O)cn4O)c3)CSC12)c1csc(N)n1)C(=O)O (stereo partly drawn) [Compound 3] | 0.25 (≈ 0.329 µM) |

system: E. cloacae β19; assay: as above; type: cell-based; conditions: Enterobacter cloacae, read-out: MIC90
Protocol: as §1, §2, §3, §4

| SMILES | MIC90 [µg/mL] |
| --- | --- |
| C[C@H](O/N=C(\C(=O)N[C@@H]1C(=O)N2C(C(=O)[O-])=C(C[n+]3cnc(N)c(NCCNC(=O)c4cc(=O)c(O)cn4O)c3)CSC12)c1csc(N)n1)C(=O)O (stereo partly drawn) [Compound 3] | 2 (≈ 2.63 µM) |

system: A. baumannii 46; assay: as above; type: cell-based; conditions: Acinetobacter baumannii; A. baumannii 46; read-out: MIC90
Protocol: as §1, §2, §3, §4

| SMILES | MIC90 [µg/mL] |
| --- | --- |
| C[C@H](O/N=C(\C(=O)N[C@@H]1C(=O)N2C(C(=O)[O-])=C(C[n+]3cnc(N)c(NCCNC(=O)c4cc(=O)c(O)cn4O)c3)CSC12)c1csc(N)n1)C(=O)O (stereo partly drawn) [Compound 3] | 2 (≈ 2.63 µM) |

system: P. aeruginosa 6065Y; assay: as above; type: cell-based; conditions: Pseudomonas aeruginosa, read-out: MIC90
Protocol: as §1, §2, §3, §4

| SMILES | MIC90 [µg/mL] |
| --- | --- |
| C[C@H](O/N=C(\C(=O)N[C@@H]1C(=O)N2C(C(=O)[O-])=C(C[n+]3cnc(N)c(NCCNC(=O)c4cc(=O)c(O)cn4O)c3)CSC12)c1csc(N)n1)C(=O)O (stereo partly drawn) [Compound 3] | 0.5 (≈ 0.658 µM) |

system: K. pneumoniae β14; assay: as above; type: cell-based; conditions: Klebsiella pneumoniae, read-out: MIC90
Protocol: as §1, §2, §3, §4

| SMILES | MIC90 [µg/mL] |
| --- | --- |
| C[C@H](O/N=C(\C(=O)N[C@@H]1C(=O)N2C(C(=O)[O-])=C(C[n+]3cnc(N)c(NCCNC(=O)c4cc(=O)c(O)cn4O)c3)CSC12)c1csc(N)n1)C(=O)O (stereo partly drawn) [Compound 3] | 64 (≈ 84.2 µM) |

system: P. aeruginosa 1912E; assay: as above; type: cell-based; conditions: Pseudomonas aeruginosa, 1912E, read-out: MIC90
Protocol: as §1, §2, §3, §4

| SMILES | MIC90 [µg/mL] |
| --- | --- |
| C[C@H](O/N=C(\C(=O)N[C@@H]1C(=O)N2C(C(=O)[O-])=C(C[n+]3cnc(N)c(NCCNC(=O)c4cc(=O)c(O)cn4O)c3)CSC12)c1csc(N)n1)C(=O)O (stereo partly drawn) [Compound 3] | 32 (≈ 42.1 µM) |

system: P. aeruginosa 40; assay: as above; type: cell-based; conditions: Pseudomonas aeruginosa, 40, P. aeruginosa 40; read-out: MIC90
Protocol: as §1, §2, §3, §4

| SMILES | MIC90 [µg/mL] |
| --- | --- |
| C[C@H](O/N=C(\C(=O)N[C@@H]1C(=O)N2C(C(=O)[O-])=C(C[n+]3cnc(N)c(NCCNC(=O)c4cc(=O)c(O)cn4O)c3)CSC12)c1csc(N)n1)C(=O)O (stereo partly drawn) [Compound 3] | 0.125 (≈ 0.165 µM) |

system: A. calcoaceticus ATCC15473; assay: as above; type: cell-based; conditions: Acinetobacter calcoaceticus; A. calcoaceticus ATCC15473; read-out: MIC90
Protocol: as §1, §2, §3, §4

| SMILES | MIC90 [µg/mL] |
| --- | --- |
| C[C@H](O/N=C(\C(=O)N[C@@H]1C(=O)N2C(C(=O)[O-])=C(C[n+]3cnc(N)c(NCCNC(=O)c4cc(=O)c(O)cn4O)c3)CSC12)c1csc(N)n1)C(=O)O (stereo partly drawn) [Compound 3] | 0.25 (≈ 0.329 µM) |

system: K. pneumoniae 2011E; assay: as above; type: cell-based; conditions: Klebsiella pneumoniae, 2011E, K. pneumoniae 2011E; read-out: MIC90
Protocol: as §1, §2, §3, §4

| SMILES | MIC90 [µg/mL] |
| --- | --- |
| C[C@H](O/N=C(\C(=O)N[C@@H]1C(=O)N2C(C(=O)[O-])=C(C[n+]3cnc(N)c(NCCNC(=O)c4cc(=O)c(O)cn4O)c3)CSC12)c1csc(N)n1)C(=O)O (stereo partly drawn) [Compound 3] | 1 (≈ 1.32 µM) |

system: A. baumannii 49; assay: as above; type: cell-based; conditions: Acinetobacter baumannii; A. baumannii 49; read-out: MIC90
Protocol: as §1, §2, §3, §4

| SMILES | MIC90 [µg/mL] |
| --- | --- |
| C[C@H](O/N=C(\C(=O)N[C@@H]1C(=O)N2C(C(=O)[O-])=C(C[n+]3cnc(N)c(NCCNC(=O)c4cc(=O)c(O)cn4O)c3)CSC12)c1csc(N)n1)C(=O)O (stereo partly drawn) [Compound 3] | > 128 |

system: A. baumannii 52; assay: as above; type: cell-based; conditions: Acinetobacter baumannii; A. baumannii 52; read-out: MIC90
Protocol: as §1, §2, §3, §4

| SMILES | MIC90 [µg/mL] |
| --- | --- |
| C[C@H](O/N=C(\C(=O)N[C@@H]1C(=O)N2C(C(=O)[O-])=C(C[n+]3cnc(N)c(NCCNC(=O)c4cc(=O)c(O)cn4O)c3)CSC12)c1csc(N)n1)C(=O)O (stereo partly drawn) [Compound 3] | 128 (≈ 168 µM) |
